Experiments:
galium = assay: Test A postemergence; assay type: in vivo, Galium aparine
Outline: (§1)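 Greenhouse pot test, loam/sand soil. Formulation: non-phytotoxic solvent mix plus surfactant. Pre: directed spray onto soil after sowing. Post: plants at 1–2 leaf, 2–10 cm. Rated visually vs untreated controls at ~10 d, 0 (no effect) to 100 (complete control).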

pigweed [1] = assay: Test A preemergence; assay type: in vivo, Amaranthus retroflexus; settings: for Pigweed plant response rating (0 to 100 scale): 125 g ai/ha; for Plant response rating, Pigweed: 31 g ai/ha, visual, approximately 10 days
Outline: as §1

blackgrass = assay: Test A postemergence; assay type: in vivo, Alopecurus myosuroides
Outline: as §1

Italian ryegrass [2] = assay: Test A preemergence; assay type: in vivo, Lolium multiflorum; settings: for Ryegrass, Italian plant response rating (0 to 100 scale): 125 g ai/ha; for Plant response rating, Ryegrass, Italian: 31 g ai/ha, visual, approximately 10 days
Outline: as §1

wheat = assay: Test A postemergence; assay type: in vivo, Triticum aestivum
Outline: as §1

ragweed [3] = assay: Test A preemergence; assay type: in vivo, Ambrosia elatior; settings: for Ragweed plant response rating (0 to 100 scale): 125 g ai/ha; for Plant response rating, Ragweed: 31 g ai/ha, visual, approximately 10 days
Outline: as §1

giant foxtail [4] = assay: Test A postemergence; assay type: in vivo, Setaria faberii
Outline: as §1

kochia [5] = assay: Test A preemergence; assay type: in vivo, Kochia scoparia; settings: for Kochia plant response rating (0 to 100 scale): 125 g ai/ha; for Plant response rating, Kochia: 31 g ai/ha, visual, approximately 10 days
Outline: as §1

Italian ryegrass [6] = assay: Test A postemergence; assay type: in vivo, Lolium multiflorum
Outline: as §1

pigweed [7] = assay: Test A postemergence; assay type: in vivo, Amaranthus retroflexus
Outline: as §1

barnyardgrass [8] = assay: Test A postemergence; assay type: in vivo, Echinochloa crus-galli
Outline: as §1

giant foxtail [9] = assay: Test A preemergence; assay type: in vivo, Setaria faberii; settings: for Foxtail, Giant plant response rating (0 to 100 scale): 125 g ai/ha; for Plant response rating, Foxtail, Giant: 31 g ai/ha, visual, approximately 10 days
Outline: as §1

corn = assay: Test A postemergence; assay type: in vivo, Zea mays
Outline: as §1

Heteranthera limosa = assay: Test B flooded paddy test; assay type: in vivo; settings: Flood, 250 g ai/ha; 0 to 100 scale where 0 is no effect and 100 is complete control
Outline: (§2)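 Evaluation is visual, against untreated controls, 13 to 15 days after treatment. Before treatment, plants reached the 2-leaf stage; pots were then flooded 3 cm deep, compound was added to the water, and that level was maintained. Ratings run 0 to 100, with 100 meaning complete control.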

barnyardgrass [10] = assay: Test A preemergence; assay type: in vivo, Echinochloa crus-galli; settings: for Barnyardgrass plant response rating (0 to 100 scale, 0 is no effect, 100 is complete control): 125 g ai/ha; for Plant response rating, Barnyardgrass: 31 g ai/ha, visual, approximately 10 days
Outline: as §1

kochia [11] = assay: Test A postemergence; assay type: in vivo, Kochia scoparia
Outline: as §1

ragweed [12] = assay: Test A postemergence; assay type: in vivo, Ambrosia elatior
Outline: as §1

sedge, umbrella = assay: Test B flooded paddy test; assay type: in vivo, Cyperus difformis; settings: Flood, 250 g ai/ha; 0 to 100 scale where 0 is no effect and 100 is complete control
Outline: as §2

rice = assay: Test B flooded paddy test; assay type: in vivo, Oryza sativa; settings: Flood, 250 g ai/ha; 0 to 100 scale where 0 is no effect and 100 is complete control
Outline: as §2

barnyardgrass [13] = assay: Test B flooded paddy test; assay type: in vivo, Echinochloa crus-galli; settings: Flood, 250 g ai/ha; 0 to 100 scale where 0 is no effect and 100 is complete control
Outline: as §2

[14] = 125 g ai/ha, 0 to 100 scale where 0 is no effect and 100 is complete control
[15] = 500 g ai/ha, 0 to 100 scale where 0 is no effect and 100 is complete control
[16] = 31 g ai/ha, 0 to 100 scale, 0 no effect, 100 complete control
[17] = 125 g ai/ha, 0 to 100 scale, 0 no effect, 100 complete control
[18] = 0 to 100 scale where 0 is no effect and 100 is complete control

COc1ccc(C#N)c(-n2cc(Br)cn2)c1Oc1ncc(Cl)cn1 [Compound 212]
Galium plant response rating (galium; [14]): 10 | Plant response rating, Galium (galium; [15]): 30 | Pigweed plant response rating (0 to 100 scale) (pigweed [1]): 70 | Pigweed plant response rating (pigweed [1]; [15]): 90 | Blackgrass plant response rating (blackgrass; [14]): 10 | Plant response rating, Blackgrass (blackgrass; [15]): 50 | Ryegrass, Italian plant response rating (0 to 100 scale) (Italian ryegrass [2]): 0 | Ryegrass, Italian plant response rating (Italian ryegrass [2]; [15]): 20 | Wheat plant response rating (wheat; [14]): 0 | Plant response rating, Wheat (wheat; [15]): 30 | Ragweed plant response rating (0 to 100 scale) (ragweed [3]): 0 | Ragweed plant response rating (ragweed [3]; [15]): 0 | Foxtail, Giant plant response rating (giant foxtail [4]; [14]): 0 | Plant response rating, Foxtail, Giant (giant foxtail [4]; [15]): 50 | Kochia plant response rating (0 to 100 scale) (kochia [5]): 0 | Kochia plant response rating (kochia [5]; [15]): 40 | Ryegrass, Italian plant response rating (Italian ryegrass [6]; [14]): 20 | Plant response rating, Ryegrass, Italian (Italian ryegrass [6]; [15]): 30 | Pigweed plant response rating (pigweed [7]; [14]): 20 | Plant response rating, Pigweed (pigweed [7]; [15]): 30 | Barnyardgrass plant response rating (barnyardgrass [8]; [14]): 0 | Plant response rating, Barnyardgrass (barnyardgrass [8]; [15]): 0 | Foxtail, Giant plant response rating (0 to 100 scale) (giant foxtail [9]): 0 | Foxtail, Giant plant response rating (giant foxtail [9]; [15]): 50 | Corn plant response rating (corn; [14]): 0 | Plant response rating, Corn (corn; [15]): 0 | Plant response rating, Ducksalad (Heteranthera limosa): 0 | Barnyardgrass plant response rating (0 to 100 scale, 0 is no effect, 100 is complete control) (barnyardgrass [10]): 0 | Barnyardgrass plant response rating (barnyardgrass [10]; [15]): 20 | Kochia plant response rating (kochia [11]; [14]): 0 | Plant response rating, Kochia (kochia [11]; [15]): 10 | Ragweed plant response rating (ragweed [12]; [14]): 0 | Plant response rating, Ragweed (ragweed [12]; [15]): 10 | Plant response rating, Sedge, Umbrella (sedge, umbrella): 0 | Plant response rating, Rice (rice): 0 | Plant response rating, Barnyardgrass (barnyardgrass [13]): 0

N#Cc1cnn(-c2c(CF)cccc2Oc2ncc(Br)cn2)c1 [Compound 243]
Plant response rating, Galium (galium; [16]): 0 | Plant response rating, Galium (galium; [17]): 10 | Plant response rating, Pigweed (pigweed [1]; [18]): 0 | Pigweed plant response rating (0 to 100 scale) (pigweed [1]): 80 | Plant response rating, Blackgrass (blackgrass; [16]): 0 | Plant response rating, Blackgrass (blackgrass; [17]): 30 | Plant response rating, Ryegrass, Italian (Italian ryegrass [2]; [18]): 0 | Ryegrass, Italian plant response rating (0 to 100 scale) (Italian ryegrass [2]): 0 | Plant response rating, Wheat (wheat; [16]): 0 | Plant response rating, Wheat (wheat; [17]): 20 | Plant response rating, Ragweed (ragweed [3]; [18]): 0 | Ragweed plant response rating (0 to 100 scale) (ragweed [3]): 20 | Plant response rating, Foxtail, Giant (giant foxtail [4]; [16]): 0 | Plant response rating, Foxtail, Giant (giant foxtail [4]; [17]): 10 | Plant response rating, Kochia (kochia [5]; [18]): 0 | Kochia plant response rating (0 to 100 scale) (kochia [5]): 90 | Plant response rating, Ryegrass, Italian (Italian ryegrass [6]; [16]): 0 | Plant response rating, Ryegrass, Italian (Italian ryegrass [6]; [17]): 0 | Plant response rating, Pigweed (pigweed [7]; [16]): 10 | Plant response rating, Pigweed (pigweed [7]; [17]): 20 | Plant response rating, Barnyardgrass (barnyardgrass [8]; [16]): 0 | Plant response rating, Barnyardgrass (barnyardgrass [8]; [17]): 0 | Plant response rating, Foxtail, Giant (giant foxtail [9]; [18]): 0 | Foxtail, Giant plant response rating (0 to 100 scale) (giant foxtail [9]): 100 | Plant response rating, Corn (corn; [16]): 0 | Plant response rating, Corn (corn; [17]): 0 | Plant response rating, Ducksalad (Heteranthera limosa): 30 | Plant response rating, Barnyardgrass (barnyardgrass [10]; [18]): 0 | Barnyardgrass plant response rating (0 to 100 scale, 0 is no effect, 100 is complete control) (barnyardgrass [10]): 30 | Plant response rating, Kochia (kochia [11]; [16]): 20 | Plant response rating, Kochia (kochia [11]; [17]): 30 | Plant response rating, Ragweed (ragweed [12]; [16]): 20 | Plant response rating, Ragweed (ragweed [12]; [17]): 20 | Plant response rating, Sedge, Umbrella (sedge, umbrella): 0 | Plant response rating, Rice (rice): 0 | Plant response rating, Barnyardgrass (barnyardgrass [13]): 0

FCc1cccc(Oc2ncc(Br)cn2)c1-n1cc(I)cn1 [Compound 244]
Plant response rating, Galium (galium; [16]): 70 | Plant response rating, Galium (galium; [17]): 100 | Plant response rating, Pigweed (pigweed [1]; [18]): 0 | Pigweed plant response rating (0 to 100 scale) (pigweed [1]): 100 | Plant response rating, Blackgrass (blackgrass; [16]): 0 | Plant response rating, Blackgrass (blackgrass; [17]): 30 | Plant response rating, Ryegrass, Italian (Italian ryegrass [2]; [18]): 0 | Ryegrass, Italian plant response rating (0 to 100 scale) (Italian ryegrass [2]): 0 | Plant response rating, Wheat (wheat; [16]): 0 | Plant response rating, Wheat (wheat; [17]): 20 | Plant response rating, Ragweed (ragweed [3]; [18]): 0 | Ragweed plant response rating (0 to 100 scale) (ragweed [3]): 0 | Plant response rating, Foxtail, Giant (giant foxtail [4]; [16]): 0 | Plant response rating, Foxtail, Giant (giant foxtail [4]; [17]): 10 | Plant response rating, Kochia (kochia [5]; [18]): 0 | Kochia plant response rating (0 to 100 scale) (kochia [5]): 40 | Plant response rating, Ryegrass, Italian (Italian ryegrass [6]; [16]): 0 | Plant response rating, Ryegrass, Italian (Italian ryegrass [6]; [17]): 0 | Plant response rating, Pigweed (pigweed [7]; [16]): 20 | Plant response rating, Pigweed (pigweed [7]; [17]): 100 | Plant response rating, Barnyardgrass (barnyardgrass [8]; [16]): 0 | Plant response rating, Barnyardgrass (barnyardgrass [8]; [17]): 10 | Plant response rating, Foxtail, Giant (giant foxtail [9]; [18]): 0 | Foxtail, Giant plant response rating (0 to 100 scale) (giant foxtail [9]): 80 | Plant response rating, Corn (corn; [16]): 0 | Plant response rating, Corn (corn; [17]): 20 | Plant response rating, Ducksalad (Heteranthera limosa): 40 | Plant response rating, Barnyardgrass (barnyardgrass [10]; [18]): 0 | Barnyardgrass plant response rating (0 to 100 scale, 0 is no effect, 100 is complete control) (barnyardgrass [10]): 20 | Plant response rating, Kochia (kochia [11]; [16]): 20 | Plant response rating, Kochia (kochia [11]; [17]): 80 | Plant response rating, Ragweed (ragweed [12]; [16]): 0 | Plant response rating, Ragweed (ragweed [12]; [17]): 0 | Plant response rating, Sedge, Umbrella (sedge, umbrella): 0 | Plant response rating, Rice (rice): 0 | Plant response rating, Barnyardgrass (barnyardgrass [13]): 0

FC(F)(F)Sc1cnn(-c2ccccc2Oc2ncc(Br)cn2)c1 [Compound 246]
Plant response rating, Galium (galium; [16]): 20 | Plant response rating, Galium (galium; [17]): 70 | Plant response rating, Pigweed (pigweed [1]; [18]): 0 | Pigweed plant response rating (0 to 100 scale) (pigweed [1]): 20 | Plant response rating, Blackgrass (blackgrass; [16]): 0 | Plant response rating, Blackgrass (blackgrass; [17]): 0 | Plant response rating, Ryegrass, Italian (Italian ryegrass [2]; [18]): 0 | Ryegrass, Italian plant response rating (0 to 100 scale) (Italian ryegrass [2]): 0 | Plant response rating, Wheat (wheat; [16]): 0 | Plant response rating, Wheat (wheat; [17]): 0 | Plant response rating, Ragweed (ragweed [3]; [18]): 0 | Ragweed plant response rating (0 to 100 scale) (ragweed [3]): 0 | Plant response rating, Foxtail, Giant (giant foxtail [4]; [16]): 0 | Plant response rating, Foxtail, Giant (giant foxtail [4]; [17]): 0 | Plant response rating, Kochia (kochia [5]; [18]): 0 | Kochia plant response rating (0 to 100 scale) (kochia [5]): 0 | Plant response rating, Ryegrass, Italian (Italian ryegrass [6]; [16]): 0 | Plant response rating, Ryegrass, Italian (Italian ryegrass [6]; [17]): 0 | Plant response rating, Pigweed (pigweed [7]; [16]): 20 | Plant response rating, Pigweed (pigweed [7]; [17]): 40 | Plant response rating, Barnyardgrass (barnyardgrass [8]; [16]): 0 | Plant response rating, Barnyardgrass (barnyardgrass [8]; [17]): 0 | Plant response rating, Foxtail, Giant (giant foxtail [9]; [18]): 0 | Foxtail, Giant plant response rating (0 to 100 scale) (giant foxtail [9]): 70 | Plant response rating, Corn (corn; [16]): 0 | Plant response rating, Corn (corn; [17]): 20 | Plant response rating, Ducksalad (Heteranthera limosa): 0 | Plant response rating, Barnyardgrass (barnyardgrass [10]; [18]): 0 | Barnyardgrass plant response rating (0 to 100 scale, 0 is no effect, 100 is complete control) (barnyardgrass [10]): 30 | Plant response rating, Kochia (kochia [11]; [16]): 20 | Plant response rating, Kochia (kochia [11]; [17]): 70 | Plant response rating, Ragweed (ragweed [12]; [16]): 0 | Plant response rating, Ragweed (ragweed [12]; [17]): 0 | Plant response rating, Sedge, Umbrella (sedge, umbrella): 0 | Plant response rating, Rice (rice): 0 | Plant response rating, Barnyardgrass (barnyardgrass [13]): 0
